Measured values published in PubChem BioAssay (NCI).
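96-well plates; 48 h exposure; 5 concentrations. Endpoints by linear interpolation between flanking doses. Not reached: highest tested concentration assigned. At the GI50, growth is halved. TGI: total growth inhibition.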

Tests used:
Test in all cases: NCI tumour cell line growth inhibition, 48 h
BT-549 breast = tested on: BT-549 breast
MCF7 breast = tested on: MCF7 breast
MDA-MB-231 breast = tested on: MDA-MB-231 breast
MDA-MB-435 = tested on: MDA-MB-435
MDA-N = tested on: MDA-N
DMS 114 small cell lung = tested on: DMS 114 small cell lung
HOP-18 NSCLC = tested on: HOP-18 NSCLC
M19-MEL melanoma = tested on: M19-MEL melanoma

`O=C1c2cc(Br)ccc2-c2c1c1ccc([N+](=O)[O-])cc1c(=O)n2CCCCl` gave a GI50 (BT-549 breast) of 2.98 µM, a TGI (BT-549 breast) greater than 63.8 µM and a GI50 (MCF7 breast) of less than 0.01 µM. For the same compound, the TGI (MCF7 breast) was greater than 44 µM, the GI50 (MDA-MB-231 breast) was 12.9 µM and the TGI (MDA-MB-231 breast) was greater than 96.1 µM. For the same compound, the GI50 (MDA-MB-435) was 0.489 µM and the TGI (MDA-MB-435) was 6.12 µM.
`Cc1cc(S(=O)(=O)Nc2nc(N)nc(N3N=CCC3C)n2)c(S)cc1Cl` (stereo unspecified) showed a TGI (BT-549 breast) greater than 10 µM, a TGI (MCF7 breast) greater than 10 µM and a TGI (MDA-N) greater than 10 µM.
In the case of `CC#CC(O)(C(=O)OC1CCCN(C)C1)C1=CC=CCC1` (stereo unspecified), the TGI (MCF7 breast) is reported as greater than 100 µM, the TGI (MDA-MB-231 breast) is reported as greater than 100 µM and the TGI (MDA-MB-435) is reported as greater than 100 µM. The TGI (MDA-N) was greater than 100 µM.
For `COC(=O)CCC/C=C\C[C@H]1C=CC(=O)/C1=C/C[C@@H](O)CCc1cccc(C(F)(F)F)c1`, the GI50 (BT-549 breast) was 2.68 µM, the TGI (BT-549 breast) was 9.25 µM and the GI50 (MCF7 breast) was 0.775 µM. It also gave a TGI (MCF7 breast) of 12.9 µM, a GI50 (MDA-MB-231 breast) of 4.65 µM and a TGI (MDA-MB-231 breast) of 17.1 µM. The GI50 (MDA-MB-435) was 2.01 µM and the TGI (MDA-MB-435) was 6.15 µM.
Compound `COP1(=O)CC2C(Cl)(Cl)C2(C)C1` (stereo unspecified) has a TGI (DMS 114 small cell lung) greater than 100 µM, a TGI (HOP-18 NSCLC) greater than 100 µM and a TGI (M19-MEL melanoma) greater than 100 µM.
`S=C(Nc1ccc(-c2nc3ccccc3[nH]2)cc1)NC1CCCCC1` showed a GI50 (BT-549 breast) of 21.7 µM, a TGI (BT-549 breast) of 60.3 µM and a GI50 (MCF7 breast) of 19.7 µM. The TGI (MCF7 breast) was greater than 100 µM, the GI50 (MDA-MB-231 breast) was 18.1 µM and the TGI (MDA-MB-231 breast) was 43.1 µM. The GI50 (MDA-MB-435) was 16.4 µM and the TGI (MDA-MB-435) was 43.3 µM.
For `N#CC(C#N)=C(N)/C(C#N)=C\c1ccnc2ccccc12`, the TGI (DMS 114 small cell lung) was 38.8 µM, the TGI (HOP-18 NSCLC) was greater than 100 µM and the TGI (M19-MEL melanoma) was 40.8 µM.
In the case of `CN(C)CCNc1nc2ccccc2c2c1c1c(n2Cc2ccccc2)-c2ccccc2C1=O`, the GI50 (BT-549 breast) is reported as 16.7 µM, the TGI (BT-549 breast) is reported as 32.9 µM and the GI50 (MCF7 breast) is reported as 15.1 µM. It also gave a TGI (MCF7 breast) of 33.6 µM, a GI50 (MDA-MB-231 breast) of 16.5 µM and a TGI (MDA-MB-231 breast) of 32.1 µM. The GI50 (MDA-MB-435) was 16.8 µM and the TGI (MDA-MB-435) was 35.5 µM.
`COc1cc2nc(-c3ccc(C(F)(F)F)cc3)cc(OCCCN3CCOCC3)c2cc1OC` gave a GI50 (BT-549 breast) of 5 µM, a TGI (BT-549 breast) of 20.9 µM and a GI50 (MCF7 breast) of 1.55 µM. For the same compound, the TGI (MCF7 breast) was 11.7 µM, the GI50 (MDA-MB-231 breast) was 0.498 µM and the TGI (MDA-MB-231 breast) was 4.51 µM. For the same compound, the GI50 (MDA-MB-435) was 1.2 µM and the TGI (MDA-MB-435) was 3.57 µM.
`Nc1nc(-c2cccc([N+](=O)[O-])c2)c(Br)c(=O)[nH]1` was tested, and the TGI (BT-549 breast) was greater than 63 µM, the TGI (MCF7 breast) was greater than 65.3 µM and the TGI (MDA-MB-231 breast) was greater than 100 µM. It also gave a TGI (MDA-MB-435) greater than 100 µM.
`CC[N+](CCCCCCCCCC[N+](CC)(c1ccccn1)c1ccccn1)(c1ccccn1)c1ccccn1` gave a GI50 (BT-549 breast) of 0.973 µM, a TGI (BT-549 breast) of 88.9 µM and a GI50 (MCF7 breast) of 0.437 µM. The TGI (MCF7 breast) was 4.26 µM, the GI50 (MDA-MB-231 breast) was 2.24 µM and the TGI (MDA-MB-231 breast) was 13.8 µM. For the same compound, the GI50 (MDA-MB-435) was 0.609 µM and the TGI (MDA-MB-435) was 4.19 µM.
With `Oc1ccc(Br)cc1Sc1cc(Br)ccc1O` the GI50 (BT-549 breast) was 8.46 µM, the TGI (BT-549 breast) was 23 µM and the GI50 (MCF7 breast) was 11.2 µM. It also gave a TGI (MCF7 breast) of 30 µM, a GI50 (MDA-MB-231 breast) of 6.58 µM and a TGI (MDA-MB-231 breast) of 23.2 µM. For the same compound, the GI50 (MDA-MB-435) was 5.23 µM and the TGI (MDA-MB-435) was 19.8 µM.
`CCCCNc1nc(NC(C)(C)C)nc(NC(C)(C)C)n1` was tested, and the GI50 (BT-549 breast) was 19.1 µM, the TGI (BT-549 breast) was greater than 100 µM and the GI50 (MCF7 breast) was 9.94 µM. It also gave a TGI (MCF7 breast) greater than 100 µM, a GI50 (MDA-MB-231 breast) of 2.27 µM and a TGI (MDA-MB-231 breast) of 34.8 µM. It also gave a GI50 (MDA-MB-435) of 31.8 µM and a TGI (MDA-MB-435) greater than 100 µM.
`COc1cc(-c2cnn(C)c2)ccc1Nc1ncc2ccnc(N[C@@H](C)C(C)(C)C)c2n1` showed a GI50 (BT-549 breast) greater than 68.5 µM, a TGI (BT-549 breast) greater than 100 µM and a GI50 (MCF7 breast) greater than 63.1 µM. For the same compound, the TGI (MCF7 breast) was greater than 100 µM, the GI50 (MDA-MB-231 breast) was 13.4 µM and the TGI (MDA-MB-231 breast) was greater than 100 µM. It also gave a GI50 (MDA-MB-435) greater than 75.1 µM and a TGI (MDA-MB-435) greater than 100 µM.
Compound `CN1CCN(Cc2ccc(NC(=O)c3cncc(C#Cc4cnc(N)c5ccc(F)cc45)c3)cc2C(F)(F)F)CC1` has a GI50 (BT-549 breast) of 4.38 µM, a TGI (BT-549 breast) of 8.86 µM and a GI50 (MCF7 breast) of 1.27 µM. The TGI (MCF7 breast) was 5.43 µM, the GI50 (MDA-MB-231 breast) was 0.936 µM and the TGI (MDA-MB-231 breast) was 3.66 µM. The GI50 (MDA-MB-435) was 1.24 µM and the TGI (MDA-MB-435) was 4.99 µM.
Work on `Cc1cc2nc3c(=O)n(C)c(=O)nc-3n(-c3ccc(Cl)cc3)c2cc1C` yielded a TGI (DMS 114 small cell lung) of 13.7 µM, a TGI (HOP-18 NSCLC) of 19.9 µM and a TGI (M19-MEL melanoma) of 5.74 µM.
`Cc1cc2nc3c(C(OC4OC(CO)C(O)C(O)C4O)C(O)CO)nn(-c4ccccc4)c3nc2cc1C` (stereo unspecified) showed a TGI (DMS 114 small cell lung) greater than 100 µM.
Work on `CC(=O)CC1CCC(=O)CCC(=O)OC(CC(C)=O)CCC(=O)CCC(=O)O1` (stereo unspecified) yielded a TGI (BT-549 breast) greater than 100 µM, a TGI (MCF7 breast) greater than 100 µM and a TGI (MDA-MB-231 breast) greater than 100 µM. The TGI (MDA-MB-435) was greater than 100 µM and the TGI (MDA-N) was greater than 100 µM.
Compound `O=C(Nc1ccc(Cl)cc1)Nc1ccc(Cl)c(Cl)c1` has a GI50 (MCF7 breast) of 2.27 µM, a TGI (MCF7 breast) of 8.9 µM and a GI50 (MDA-MB-231 breast) of 2.34 µM. For the same compound, the TGI (MDA-MB-231 breast) was 7.65 µM, the GI50 (MDA-MB-435) was 3.4 µM and the TGI (MDA-MB-435) was greater than 100 µM.
Work on `c1ccc2c(c1)[I+]c1ccccc1-2` yielded a GI50 (BT-549 breast) greater than 50 µM, a TGI (BT-549 breast) greater than 50 µM and a GI50 (MCF7 breast) greater than 50 µM. For the same compound, the TGI (MCF7 breast) was greater than 50 µM, the GI50 (MDA-MB-231 breast) was 47.6 µM and the TGI (MDA-MB-231 breast) was greater than 50 µM. For the same compound, the GI50 (MDA-MB-435) was greater than 50 µM and the TGI (MDA-MB-435) was greater than 50 µM.
With `c1cnc2c(c1)-n1cccc1C1(CCSCC1)NN2` the TGI (HOP-18 NSCLC) was greater than 100 µM and the TGI (M19-MEL melanoma) was greater than 100 µM.
`CC(C)c1ccc(Cc2cnc(NC(=O)c3cc(Br)cs3)s2)cc1` was tested, and the GI50 (BT-549 breast) was 3.81 µM, the TGI (BT-549 breast) was greater than 100 µM and the GI50 (MCF7 breast) was 1.6 µM. For the same compound, the TGI (MCF7 breast) was greater than 100 µM, the GI50 (MDA-MB-231 breast) was 3.09 µM and the TGI (MDA-MB-231 breast) was 19.4 µM. It also gave a GI50 (MDA-MB-435) of 0.355 µM and a TGI (MDA-MB-435) of 2.16 µM.
Work on `C=CCNC(=S)N1CC(C)C(=O)Nc2ccccc21` (stereo unspecified) yielded a TGI (DMS 114 small cell lung) greater than 100 µM.
`CC(=O)Oc1cc(C)ccc1[C@]1(C)CC[C@H](C)/C1=C\Br` was tested, and the GI50 (BT-549 breast) was 4.1 µM, the TGI (BT-549 breast) was 17.6 µM and the GI50 (MCF7 breast) was 4.07 µM. It also gave a TGI (MCF7 breast) of 15.3 µM, a GI50 (MDA-MB-231 breast) of 9.04 µM and a TGI (MDA-MB-231 breast) of 23.9 µM. It also gave a GI50 (MDA-MB-435) of 1.49 µM, a TGI (MDA-MB-435) of 3.89 µM and a GI50 (MDA-N) of 2.36 µM. The TGI (MDA-N) was 7.16 µM.
`CCOc1ccc(/C=C/C(=O)c2ccccc2)cc1` gave a GI50 (BT-549 breast) of 26.4 µM, a TGI (BT-549 breast) of 62 µM and a GI50 (MCF7 breast) of 4.12 µM. It also gave a TGI (MCF7 breast) of 21 µM, a GI50 (MDA-MB-231 breast) of 26 µM and a TGI (MDA-MB-231 breast) of 72.8 µM. The GI50 (MDA-MB-435) was 12 µM and the TGI (MDA-MB-435) was 30.1 µM.
`COc1ccc2c(c1)C(=O)CC(N)C2` (stereo unspecified) was tested, and the TGI (BT-549 breast) was greater than 100 µM, the TGI (MCF7 breast) was greater than 100 µM and the TGI (MDA-MB-231 breast) was greater than 100 µM. The TGI (MDA-MB-435) was greater than 100 µM and the TGI (MDA-N) was greater than 100 µM.
`COc1ccc(NC(=O)C2C(=O)N(c3ccc(OC)cc3)C(=O)/C2=N/O)cc1` (stereo unspecified) showed a TGI (DMS 114 small cell lung) greater than 100 µM, a TGI (HOP-18 NSCLC) of 44.4 µM and a TGI (M19-MEL melanoma) of 61.1 µM.
With `COc1cc(-c2nc3ccc(C)cc3[nH]2)ccc1OCC(=O)N=Nc1c(O)[nH]c2ccccc12` the GI50 (BT-549 breast) was 2.26 µM, the TGI (BT-549 breast) was 6.56 µM and the GI50 (MDA-MB-231 breast) was 1.64 µM. It also gave a TGI (MDA-MB-231 breast) of 3.1 µM, a GI50 (MDA-MB-435) of 1.63 µM and a TGI (MDA-MB-435) of 3 µM.
In the case of `O=c1ccn(C2OC(CO)C(O)C2O)c(=O)[nH]1` (stereo unspecified), the TGI (BT-549 breast) is reported as greater than 1000 µM, the GI50 (MCF7 breast) is reported as greater than 1000 µM and the TGI (MCF7 breast) is reported as greater than 1000 µM. For the same compound, the TGI (MDA-MB-231 breast) was greater than 1000 µM, the GI50 (MDA-MB-435) was greater than 1000 µM and the TGI (MDA-MB-435) was greater than 1000 µM. The GI50 (MDA-N) was greater than 1000 µM and the TGI (MDA-N) was greater than 1000 µM.
